In patent US20240059658A1 (Emory University, priority 2019, published 2024):

Legend:
MDM2 = target: T1, MDM2 (Homo sapiens, UniProt Q00987); experiment: MDM2 reduction / expression (Western blot); format: cell-based; conditions: words or +/− grades, key not given
T1 construct: ubiquitination of endogenous MDM2 in EU-1 cells; endogenous in cells; host or cells: EU-1 (ALL) cells
Method: (§1) Cells were lysed in a buffer composed of 50 mM Tris, pH 7.6, 150 mM NaCl, 1% Nonidet P-40, 10 mM sodium phosphate, 10 mM NaF, 1 mM sodium orthovanadate, 2 mM phenylmethylsulfonyl fluoride (PMSF), […], 10 μg/mL leupeptin and 10 μg/mL pepstatin. After centrifugation, the clarified cell lysate was separated from the pellet of cell debris, and then incubated with 15 μL Protein G/Protein A-agarose and 1 μg of antibodies, overnight at 4° C. For the Western blot, the resulting cell lysates or immunoprecipitates were resolved by SDS-PAGE. They were then transferred to a nitrocellulose filter and probed with the specific antibodies as listed in the supplemental Materials section. Finally, proteins were visualized with a chemiluminescent detection system.

XIAP = XIAP inhibition / expression (Western blot); format: cell-based; conditions: MDM2 reduction
Method: as §1

EU-1 = experiment: WST cytotoxicity assay, cancer cell EU-1; format: cell-based, human; conditions: Homo sapiens, EU-1, EU-1; no other cell line named in the cell; read-out: Cancer cell (EU-1) cytotoxicity IC50
Procedure, shortened: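 Pediatric ALL and NB lines grown in RPMI 1640 with 10% FBS at 37 °C, 5% CO2. Cells were exposed to a range of compound concentrations for 20 h, then WST (25 μg/well) was added for a further 4 h. OD read at 450 nm against a 620 nm reference.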

p53 = p53 induction / expression (Western blot); format: cell-based; conditions: words or +/− grades, key not given
Method: as §1

NB-1643 = experiment: WST cytotoxicity assay, NB-1643; format: cell-based; conditions: Homo sapiens; NB-1643 line; read-out: Cancer cell cytotoxicity IC50
Method: This study used two ALL cell lines (EU-1 and EU-3) and three NB cell lines (NB-1643, SHEP1 and LA1-55N). All 5 cancer cell lines were established from pediatric ALL or NB patients and were well-characterized for their expression of MDM2 and p53-status, as reported previously. All cell lines were grown in standard culture medium (RPMI 1640 containing 10% FBS, 2 mmol/L L-glutamine, 50 U penicillin and 50 μg/mL streptomycin) at 37° C. in a humidified atmosphere containing 5% CO2.
(§2) The cytotoxic effect of MX 69 and MX69 analogs on cancer cells was determined using the water-soluble tetrazolium salt (WST) assay. Briefly, cells cultured in 96-well microtiter plates were treated with different concentrations of AQ-101 for a 20-h period. WST (25 μg/well) was then added and incubation continued for an additional 4 h, after which optical density (OD) was read with a microplate reader (test wavelength of 450 nm; reference wavelength of 620 nm).

855 line = experiment: WST cytotoxicity assay, 855 line; format: cell-based; conditions: read-out: Cancer cell cytotoxicity IC50
Method: as §2

697 cell line = experiment: WST cytotoxicity assay, 697 cell line; format: cell-based; conditions: read-out: Cancer cell cytotoxicity IC50
Method: as §2

MDM2 RING protein = MDM2 RING protein (Homo sapiens, UniProt Q00987); experiment: Compound-protein binding (ITC) to MDM2 RING protein; conditions: MDM2 RING domain
Method: Isothermal titration calorimetry (ITC) assay was performed using the auto-iTC200 instrument (MicroCal, GE). MDM2 protein was loaded into a 96 DeepWell PP plate, and then compound was titrated stepwise into the protein sample cell using a syringe, for a total of 16 injections (except for the first injection, which was 0.4 μl). The equilibrium time between two adjacent injections was 210 s. The binding stoichiometry (n), binding constant (Kd), and thermodynamic parameters (ΔH and ΔS) were determined by fitting the titration curve to a one-site binding mode, using the Origin software provided by the manufacturer.

in vivo = conditions: mouse

T1 sequence (Q00987 whole entry): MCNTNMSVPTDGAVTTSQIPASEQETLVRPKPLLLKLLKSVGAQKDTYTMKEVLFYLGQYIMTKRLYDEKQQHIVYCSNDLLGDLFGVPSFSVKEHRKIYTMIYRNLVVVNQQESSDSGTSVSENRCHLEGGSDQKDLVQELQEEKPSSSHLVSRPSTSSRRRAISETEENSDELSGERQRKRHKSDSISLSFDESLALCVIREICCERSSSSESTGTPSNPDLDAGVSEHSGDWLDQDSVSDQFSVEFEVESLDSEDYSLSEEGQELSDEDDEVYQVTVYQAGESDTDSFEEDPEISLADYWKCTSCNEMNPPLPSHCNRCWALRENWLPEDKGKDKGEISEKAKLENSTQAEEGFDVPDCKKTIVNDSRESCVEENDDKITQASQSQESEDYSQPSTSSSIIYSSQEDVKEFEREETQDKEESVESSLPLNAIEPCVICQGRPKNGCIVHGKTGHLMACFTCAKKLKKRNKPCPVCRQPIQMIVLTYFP
MDM2 RING protein, sequence (Q00987 438-479 limits assumed): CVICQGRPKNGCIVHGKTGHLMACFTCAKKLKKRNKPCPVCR

SMILES | MDM2 reduction (MDM2) | IC50 (EU-1) [µM] | p53 induction (p53) | IC50 (855 line) [µM] | further results
Cc1ccc(NS(=O)(=O)c2ccc3c(c2)C(=O)CC(c2cccc(C(=O)C(C)C)c2)N3)cc1C (stereo not shown) [Compound 69L114, N-(3,4-dimethylphenyl)-2-(3-isobutyrylphenyl)-4-oxo-1,2,3,4-tetrahydroquinoline-6-sulfonamide] | inhibition | < 0.1 |  |  | XIAP inhibition (XIAP): inhibition
CC(=O)c1ccc(NS(=O)(=O)c2ccc3c(c2)[C@H]2OCC[C@H]2C(c2ccc(C(=O)C(C)C)cc2)N3)cc1 (stereo partly shown) [Compound 69L98, N-(4-acetylphenyl)-4-(4-isobutyrylphenyl)-2,3,3a,4,5,9b-hexahydrofuro[3,2-c]quinoline-8-sulfonamide] | inhibition | 1.5 | induction |  | 
CC(=O)c1ccc(C2Nc3ccc(S(=O)(=O)Nc4ccc(C)c(C)c4)cc3[C@H]3OCC[C@@H]23)cc1 (stereo partly shown) [Compound 69L38] | No MDM2 |  |  | 0.49 | IC50 (NB-1643): 1.82 µM
Cc1ccc(NS(=O)(=O)c2ccc3c(c2)C2OCC[C@H]2C(c2ccc(C(O)C(C)C)cc2)N3)cc1C (stereo in doubt) [Compound 69L87, N-(3,4-dimethylphenyl)-4(4-(1-hydroxy-2-methylpropyl)phenyl)-2,3,3a,4,5,9b-hexahydrofuro[3,2-c]quinoline-8-sulfonamide] | inhibition | 1.98 | inhibition |  | 
Cc1ccc(NS(=O)(=O)c2ccc3c(c2)C2OCC[C@H]2C2(CCCCC2)N3)cc1C (stereo partly shown) [Compound 69L62] | No MDM2 |  |  | 0.98 | IC50 (NB-1643): 1.3 µM; IC50 (697 cell line): 0.49 µM
O=S(=O)(Nc1ccc2c(c1)CCCC2)c1ccc2c(c1)C1OCC[C@H]1[C@H](C1CCCCC1)N2 (stereo partly shown) [Compound 69L59, 4-cyclohexyl-N-(5,6,7,8-tetrahydronaphthalen-2-yl)-2,3,3a,4,5,9b-hexahydrofuran[3,2-c]quinolone-8-sulfonamine] | No MDM2 |  |  | 2.31 | IC50 (NB-1643): 3.09 µM
Cc1ccc(NS(=O)(=O)c2ccc3c(c2)C2OCC[C@H]2[C@H](C2CCCCC2)N3)cc1C (stereo partly shown) [Compound 69L53, 4-cyclohexyl-N-(3,4-dimethylphenyl)-2,3,3a,4,5,9b-hexahydrofuran[3,2-c]quinolone-8-sulfonamine] | inhibition |  | induction | 0.8 | MDM2 binding affinity as compared with MX69 (MDM2 RING protein): Increased MDM2 Binding Affinity; IC50 (NB-1643): 1.73 µM; MTD (in vivo): 300 mg/kg
CC(=O)c1cccc(C2Nc3ccc(S(=O)(=O)Nc4ccc(C)c(C)c4)cc3C3OCC[C@@H]23)c1 (stereo in doubt) [Compound 69L93, 4-(3-acetylphenyl)-N-(3,4-dimethylphenyl)-2,3,3a,4,5,9b-hexahydrofuro[3,2-c]quinoline-8-sulfonamide] | inhibition | 1.95 | induction |  | 
Cc1ccc(NS(=O)(=O)c2ccc3c(c2)C2OCC[C@H]2[C@H](C2CCOCC2)N3)cc1C (stereo partly shown) [Compound 69L58, N-(3,4-dimethylphenyl)-4-(tetrahydro-2H-pyran-4-yl)-2,3,3a,4,5,9b-hexahydrofuran[3,2-c]quinolone-8-sulfonamine] | inhibition |  | induction | 1.61 | IC50 (NB-1643): 2.63 µM
Cc1ccc(NS(=O)(=O)c2ccc3c(c2)C2OCC[C@H]2C(c2cccc4ccccc24)N3)cc1C (stereo partly shown) [Compound 69L63] |  |  | induction | 6.07 | IC50 (697 cell line): 3.94 µM
O=S(=O)(Nc1ccc(Cl)c(Cl)c1)c1ccc2c(c1)C1OCC[C@H]1[C@H](C1CCCCC1)N2 (stereo partly shown) [Compound 69L60, 4-cyclohexyl-N-(3,4-dichlorophenyl)-2,3,3a,4,5,9b-hexahydrofuran[3,2-c]quinolone-8-sulfonamine] | Increase |  |  | 1.81 | IC50 (NB-1643): 5.65 µM; IC50 (697 cell line): 2.73 µM
COC(=O)c1ccc([C@H]2CC(O)c3cc(S(=O)(=O)Nc4ccc(C)c(C)c4)ccc3N2)cc1 (stereo partly shown) [Compound 69L39] | No MDM2 |  |  | 0.68 | IC50 (NB-1643): 1.61 µM
CC(=O)c1cccc(NS(=O)(=O)c2ccc3c(c2)C(=O)CC(c2ccc(C(=O)C(C)C)cc2)N3)c1 (stereo not shown) [Compound 69L113, N-(3-acetylphenyl)-2-(4-isobutyrylphenyl)-4-oxo-1,2,3,4-tetrahydro-quinoline-6-sulfonamide] | inhibition | < 0.1 |  |  | XIAP inhibition (XIAP): inhibition
CC(=O)c1ccc(C2CC(=O)c3cc(S(=O)(=O)Nc4ccc(C)c(C)c4)ccc3N2)cc1 (stereo not shown) [Compound 69L83, 2-(4-acetylphenyl)-N-(3,4-dimethylphenyl)-4-oxo-1,2,3,4-tetrahydroquinoline-6-sulfonamide] | inhibition | 1.17 | inhibition |  | 
Cc1ccc(NS(=O)(=O)c2ccc3c(c2)C2OCC[C@H]2[C@H](C2CCN(C(=O)OC(C)(C)C)CC2)N3)cc1C (stereo partly shown) [Compound 69L64] |  |  | induction | 1.35 | IC50 (697 cell line): 0.28 µM
CC(=O)c1cccc(NS(=O)(=O)c2ccc3c(c2)[C@H]2OCC[C@H]2C(c2ccc(C(=O)C(C)C)cc2)N3)c1 (stereo in doubt) [Compound 69L102, N-(3-acetylphenyl)-4-(4-isobutyrylphenyl)-2,3,3a,4,5,9b-hexahydrofuro[3,2-c]quinoline-8-sulfonamide] | inhibition | 0.23 |  |  | XIAP inhibition (XIAP): inhibition
COC(=O)c1ccc(C2Nc3ccc(S(=O)(=O)Nc4ccc(C)c(C)c4)cc3[C@H]3OCC[C@@H]23)cc1 (stereo partly shown) [Compound 69L1] |  | 1.5 to 6 |  |  | MTD (in vivo): 300 mg/kg
Cc1ccc(NS(=O)(=O)c2ccc3c(c2)C(=O)C[C@@H](c2ccc(C(=O)C(C)C)cc2)N3)cc1C (stereo in doubt) [Compound 69L84, N-(3,4-dimethylphenyl)-2-(4-isobutyrylphenyl)-4-oxo-1,2,3,4-tetrahydroquinoline-6-sulfonamide] | inhibition | 0.2 to 0.6 | activation |  | XIAP inhibition (XIAP): inhibition
CC(C)C(=O)c1ccc(C2CC(=O)c3cc(S(=O)(=O)Nc4ccc(Cl)c(Cl)c4)ccc3N2)cc1 (stereo not shown) [Compound 69L100, N-(3,4-dichlorophenyl)-2-(4-isobutyrylphenyl)-4-oxo-1,2,3,4-tetrahydroquinoline-6-sulfonamide] | No MDM2 | 1.87 |  |  | 
Cc1ccc(NS(=O)(=O)c2ccc3c(c2)[C@H]2NCC[C@H]2[C@@H](c2ccc(C(=O)C(C)C)cc2)N3)cc1C [Compound 69L81] | inhibition | 3.2 | inhibition |  | XIAP inhibition (XIAP): inhibition
Cc1ccc(NS(=O)(=O)c2ccc3c(c2)C2OCC[C@H]2C(c2ccc(C(=O)c4ccccc4)cc2)N3)cc1C (stereo in doubt) [Compound 69L54] | inhibition | 3.22 |  |  | 
Cc1ccc(NS(=O)(=O)c2ccc3c(c2)[C@H]2C=CC[C@H]2[C@H](c2ccc(C(=O)C(C)C)cc2)N3)cc1C [Compound 69L80] | No MDM2 | 2.66 |  |  | 
CC(=O)c1ccc([C@@H]2Nc3ccc(S(=O)(=O)Nc4ccc(C)c(C)c4)cc3[C@H]3C=CC[C@H]32)cc1 [Compound 69L48] | inhibition | 3.8 |  |  | 
O=S(=O)(Nc1ccc(Cl)c(Cl)c1)c1ccc2nc(C3CCCCC3)ccc2c1 [Compound 69L105] | No MDM2 | 3.12 |  |  | 
CCCC(=O)c1ccc(C2Nc3ccc(S(=O)(=O)Nc4ccc(C)c(C)c4)cc3[C@H]3OCC[C@@H]23)cc1 (stereo partly shown) [Compound 69L72] | No MDM2 | 2.94 |  |  | 
